In publication PMC10349806 (Nature Communications, 2023):
“And” between values parts separate entries of the source, which are not always exact repeats. Equal values may be shown once.

What was measured:
[1] = test system: PfCRT variant E207T; assay: CQ uptake assay, oocytes expressing E207T; type: cell-based, Plasmodium falciparum
Experimental: (§1) Site-directed mutagenesis of PfCRT^Dd2 was performed as described using the megaprimer method with overlap extension[21],[54]. The primer pairs used are listed in Supplementary Table 6. Please note that a codon-optimized and oocyte-adapted version of PfCRT^Dd2 was used[22] (Supplementary Fig. 16). The resulting DNA fragment was cloned into the SP64T expression vector and verified by sequencing.
(§2) Oocytes were obtained as described previously. Briefly, adult (>2 years old) female X. laevis frogs (NASCO) were anesthetized in a cooled solution of ethyl 3-amino benzoate methanesulfonate (0.1%, w/v), followed by a surgical removal of parts of the ovary. The ovary lobes were carefully dissected and small pieces of oocytes were incubated in Ca^2+-free ND96 buffer (96 mM NaCl, 2 mM KCl, 1 mM MgCl2 buffered with 5 mM HEPES/NaOH, pH 7.5) supplemented with collagenase D (0.1%, w/v; Roche), BSA (0.5%, w/v), and 9 mm Na2HPO4 at 18 °C for 14-16 h while gentle shaking. After incubation, the oocytes were carefully washed several times with ND96 buffer (96 mM NaCl, 2 mM KCl, 1.8 mM CaCl2, 1 mM MgCl2 buffered with 5 mM HEPES/NaOH, pH 7.5) supplemented with 100 mg l^−1 gentamycin). Defolliculated and healthy-looking stage V-VI oocytes were manually selected for RNA microinjection. The RNA was generated as following: The codon-optimized sequences of PfCRT variants were cloned into the pSP64T expression vector. After vector linearization using the restriction endonucleases BamHI or SalI (New England Biolabs), transcription was performed using the in vitro SP6 mMessage mMachine Kit (Ambion)[34]. The obtained RNA was kept at −80 °C and diluted with nuclease-free water to a concentration of 0.6 μg μl^−1. Precision-bore glass capillary tubes (3.5-inch glass capillaries; Drummond Scientific Co.) were pulled on a vertical puller (P-87 Flaming/Brown micropipette puller, Sutter Instrument Co.), graduated, and placed on a microinjector (Nanoject II Auto-Nanoliter Injector, Drummond Scientific Co.). 50 nl of nuclease-free water alone (control oocytes) or 50 nl of 0.6 μg μl^−1 RNA were injected under stereomicroscopic control. Injected oocytes were incubated for 46–72 h at 18 °C with twice-daily buffer changes before usage in experiments.
(§3) Drug uptake assays were performed as described previously[21],[22],[24],[34]. […] The direction of radio-labeled drug transport is here from the mostly acidic extracellular solution (pH 4.5 or 6.0, as indicated) into the oocyte cytosol (pH ∼ 7.2), which corresponds to the efflux of drug from the acidic digestive vacuole (pH 5.2) into the parasite cytoplasm (pH 7.2). The topology of PfCRT in the oolemma is such that both the N- and C-terminus face the extracellular milieu[3],[22]. In the parasite, the N- and C-terminus face the lumen of the digestive vacuole. […] For determination of the amount of drug uptake for each oocyte, the reaction medium was removed and the oocytes were washed three times with 2 ml of ice-cold ND96 buffer. Each oocyte was individually transferred to a scintillation vial containing 5% sodium dodecyl sulfate (200 μl) for lysis. […] Oocytes that were injected with water instead of RNA were analyzed in parallel, representing the uptake of a drug by diffusion and/or endogenous permeation pathways. […] The specific PfCRT-mediated uptake was determined by subtracting the corresponding background value measured in water-injected oocytes from that of PfCRT-expressing oocytes. […]

[2] = biological target: T1, PfCRT variant E208A (Plasmodium falciparum, UniProt Q9N623, A220S/E208A/I356T/K76T/M74I/N326S/N75E/Q271E/R371I); assay: CQ uptake assay, oocytes expressing E208A; type: cell-based
T1 sequence (Q9N623 1-424 M74I/N75E/K76T/E208A/A220S/Q271E/N326S/I356T/R371I): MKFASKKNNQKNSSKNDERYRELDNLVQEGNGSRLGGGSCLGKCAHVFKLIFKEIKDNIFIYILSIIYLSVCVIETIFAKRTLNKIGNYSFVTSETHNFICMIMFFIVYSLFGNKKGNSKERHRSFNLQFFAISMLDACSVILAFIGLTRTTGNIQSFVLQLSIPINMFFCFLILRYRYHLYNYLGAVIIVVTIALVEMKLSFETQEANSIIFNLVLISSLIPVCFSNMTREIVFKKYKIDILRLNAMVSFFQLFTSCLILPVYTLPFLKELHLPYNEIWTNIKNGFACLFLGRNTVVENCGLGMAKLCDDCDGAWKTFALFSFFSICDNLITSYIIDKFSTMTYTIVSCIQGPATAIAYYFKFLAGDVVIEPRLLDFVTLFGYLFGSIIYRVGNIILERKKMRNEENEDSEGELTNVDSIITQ
Experimental: as §1, §2, §3

[3] = pKa values of the drugs (literature); type: physicochemical; conditions: between pH 4.5 and 6.0

Compound: CCN(CC)CCCC(C)Nc1ccnc2cc(Cl)ccc12 (centres unmarked) [CQ, chloroquine]
- Activity at pH 6.0 ([1]; E207T, 50 µM CQ, 1 h, mean ± SEM): 2.62 ± 0.31 pmol h-1 oocyte-1
- R-value ([1]; E207T, CQ transport at pH 4.5 / pH 6.0): 0.91 ± 0.05
- E207T transport activity pH 4.5 ([1]; pH 4.5, individual replicates, Fig 6b): 3.35 pmol oocyte-1 h-1 and 2.14 pmol oocyte-1 h-1 and 1.74 pmol oocyte-1 h-1
- E207T transport activity pH 6.0 ([1]; pH 6.0, individual replicates, Fig 6b): 3.37 pmol oocyte-1 h-1 and 2.31 pmol oocyte-1 h-1 and 2.17 pmol oocyte-1 h-1
- E207T R-value ([1]; ratio of activity pH 4.5 / pH 6.0): 0.99 and 0.93 and 0.80
- Activity at pH 6.0 ([2]; E208A, 50 µM CQ, 1 h, mean ± SEM): 5.43 ± 0.38 pmol h-1 oocyte-1
- R-value ([2]; E208A, CQ transport at pH 4.5 / pH 6.0): 0.48 and 0.48 ± 0.05
- E208A transport activity pH 4.5 ([2]; pH 4.5, single replicates, Fig 1d left): 3.17 pmol oocyte-1 h-1 and 3.09 pmol oocyte-1 h-1 and 1.68 pmol oocyte-1 h-1
- E208A R-value ([2]; pH 4.5 vs pH 6.0, Fig 1d left): 0.52 and 0.55 and 0.37
- E208A transport activity pH 6.0 ([2]; pH 6.0, single replicates, Fig 1d left): 6.15 pmol oocyte-1 h-1 and 5.57 pmol oocyte-1 h-1 and 4.57 pmol oocyte-1 h-1
- molecules being di-protonated [3]: > 99%
